Read-outs that look alike come from different tables or passages of the source.
Key:
[1] = system: human red blood cells (hRBCs); assay: Hemolytic assay; format: cell-based; conditions: 2 h, 37 °C
Outline: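 Peptides in 2-fold serial dilutions mixed 1:1 with 4% hRBC suspension in PBS and held 2 h at 37 °C unshaken. Hemoglobin release in supernatant read at 567 nm; % hemolysis scaled between PBS (0%) and 1% Triton X-100 (100%).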

[2] = system: P. aeruginosa (ATCC 27883); assay: MIC, standard microtiter dilution (CLSI); format: cell-based, Pseudomonas aeruginosa; conditions: broth microdilution (CLSI), CAMHB, 37 °C, 24 h
Outline: (§1)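 In this CLSI-recommended assay, peptides were serially diluted twofold and combined with bacteria at 10^6 CFU/mL in cation-adjusted Mueller Hinton Broth.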

[3] = system: K. pneumoniae (ATCCBAA-1705); assay: MIC, standard microtiter dilution (CLSI); format: cell-based, Klebsiella pneumoniae; conditions: broth microdilution (CLSI), CAMHB, 37 °C, 24 h
Outline: as §1

[4] = Relative hydrophobicity as RP-HPLC retention time; format: physicochemical; conditions: chromatographic, Phenomenex Luna C18 4 μm 150 × 4.6 mm, linear AB gradient 1% acetonitrile/min, 0.3 mL/min, A water 0.1% TFA, B acetonitrile 0.1% TFA, 25 °C
Procedure: The purity analysis of the peptides was conducted on a RP-HPLC system (Shimadzu; LC-20ADXR) by using a Phenomenex (Luna) analytical C18 column (4 μm, 150 × 4.6 mm). The mass of the purified peptides was determined in the positive-ion mode using Q-TOF LC/MS (Compass Hystar 4.1, Bruker, USA). The purity (>95%) and mass data of all the synthesized peptides are provided in the Supporting Information.
8. Comparative Hydrophobicity analysis
The purity of all synthesized peptides was determined using reverse phase analytical HPLC
(Shimadzu; LC-20ADXR). Below mentioned are the conditions used to conduct the purity
Column: Phenomenex (Luna), 4 um, C18, 150 × 4.6 mm
Mobile Phase: Buffer A-Water containing 0.1% TFA,
Buffer B-Acetonitrile containing 0.1% TFA
Figure S52. HPLC chromatogram of 6a.
(1 picture or pasted object on this page, not shown here)

S. aureus (ATCC 29213) = assay: MIC, standard microtiter dilution (CLSI); format: cell-based; conditions: broth microdilution (CLSI), CAMHB, 37 °C, 24 h
Outline: as §1

[5] = CD spectroscopy, helicity; format: physicochemical; set-up: key to Δ[θ]222 induced by TFE / Δ[θ]222 induced by Liposomes: mean residue molar ellipticity, mdeg cm2/(dmol × res); conditions: for [θ]222 mean residue molar ellipticity, TFE / [θ]222 mean residue molar ellipticity, Liposomes / [θ]222 mean residue molar ellipticity, PBS: CD at 222 nm, 25 °C; for [θ]222 mean residue molar ellipticity, TFE: aqueous buffer containing 50% TFE; for [θ]222 mean residue molar ellipticity, Liposomes / Δ[θ]222 induced by Liposomes: bacterial membrane mimicking liposomes; for [θ]222 mean residue molar ellipticity, Liposomes: peptide:lipid molar ratio 1:1.05; for [θ]222 mean residue molar ellipticity, PBS: phosphate buffer saline pH 7.0; for Δ[θ]222 induced by TFE / Δ[θ]222 induced by Liposomes: difference to PBS; for Δ[θ]222 induced by TFE: 50% TFE; for % of helicity induced by TFE: increase in molar ellipticity at 222 nm in the presence of 50% TFE; for % of helicity induced by Liposomes: increase in molar ellipticity at 222 nm in the presence of liposomes;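 for % of helicity induced by Liposomes: share of the total helicity with liposomes gained over the same peptide in PBS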;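 for % of helicity induced by TFE: share of the total helicity in TFE gained over the same peptide in PBS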
Procedure: The CD spectra of peptides were recorded using a Jasco J-1500 CD spectrophotometer (Jasco, Easton, MD) at 25 °C with a 1 mm path length cell. Wavelengths from 190 to 260 nm were scanned with 1.0 nm step resolution, 100 nm/min speed, 0.4 s response time, and 1 nm bandwidth. CD spectra of the peptides were collected and averaged over three scans in 10 mM sodium phosphate buffer (pH 7.2), helix-inducing solvent 50% TFE (v/v), and bacterial mimic liposomes (75 μM lipid). Spectra were corrected by subtracting a baseline spectrum containing only buffer or 50% TFE or liposomes. The mean residue molar ellipticity was calculated using the formula [drawing 3] where Ab222 is the absorbance observed at 222 nm, MRW is the mean residue molecular weight, C is the concentration in mg/mL, and L is the path length.
Table S1. RP-HPLC retention times and CD spectroscopy analysis of the selected peptides Peptide tR (min)a [θ]222b Δ[θ]222 induced by % of helicity inducedc by PBS TFE Liposomes TFE Liposomes TFE Liposomes […]
atR (min) denotes the retention time at 25°C by RP-HPLC. bThe mean residue molar ellipticity [θ] 222 (mdeg cm2/(dmol × res)) at 222 nm was measured at 25 °C in phosphate buffer saline (PBS, pH 7.0), in aqueous buﬀer containing 50% TFE (TFE), or in presence of bacterial membrane mimicking liposomes (peptide:lipid […]
c% helix induced is the increase in the molar ellipticity at 222 nm (in percentage) of a peptide in the presence of TFE or liposomes.

MRSA (ATCC BAA-1556) = conditions: broth microdilution (CLSI), CAMHB, 37 °C, 24 h
Outline: as §1

E. coli (ATCC 25922) = conditions: broth microdilution (CLSI), CAMHB, 37 °C, 24 h
Outline: as §1

[6] = hRBC suspension 4% in PBS, hemoglobin release at 567 nm, 1% Triton X-100 = 100%
[7] = value in parentheses (μM), hRBC 4% in PBS, 567 nm
[8] = 10^6 CFU/mL, highest MIC of three independent experiments in triplicate

Substance | HC50 (concentration at which 50% hemolysis was observed) [1, 6] [µg/mL] | HC50 (concentration at which 50% hemolysis was observed) [1, 7] [µM] | MIC, P. aeruginosa (ATCC 27883) [2, 8] [µg/mL] | MIC, P. aeruginosa (ATCC 27883) ([2]; value in parentheses (μM)) [µM] | MIC, K. pneumoniae (ATCCBAA-1705) [3, 8] [µg/mL] | MIC, K. pneumoniae (ATCCBAA-1705) ([3]; value in parentheses (μM)) [µM] | tR, RP-HPLC retention time (measure of overall hydrophobicity) [4] [min] | MIC, S. aureus (ATCC 29213) (S. aureus (ATCC 29213); [8]) [µg/mL] | MIC, S. aureus (ATCC 29213) (S. aureus (ATCC 29213); value in parentheses (μM)) [µM] | [θ]222 mean residue molar ellipticity, TFE [5] | [θ]222 mean residue molar ellipticity, Liposomes [5] | [θ]222 mean residue molar ellipticity, PBS [5] | Δ[θ]222 induced by TFE [5] | Δ[θ]222 induced by Liposomes [5] | % of helicity induced by TFE [5] [%] | % of helicity induced by Liposomes [5] [%] | MIC, MRSA (ATCC BAA-1556) (MRSA (ATCC BAA-1556); [8]) [µg/mL] | MIC, MRSA (ATCC BAA-1556) (MRSA (ATCC BAA-1556); value in parentheses (μM)) [µM] | MIC, E. coli (ATCC 25922) (E. coli (ATCC 25922); [8]) [µg/mL] | MIC, E. coli (ATCC 25922) (E. coli (ATCC 25922); value in parentheses (μM)) [µM]
Ac-KWIKKWIKWWKK-NH2 [7d] | 160 | 88.92 | 12.5 | 6.95 | 25 | 13.89 | 38.75 | 6.2 | 3.45 | -11272 mdeg cm2/(dmol × res) | -19755 mdeg cm2/(dmol × res) | -3826 mdeg cm2/(dmol × res) | -7446 | -15929 | 66.05 | 80.63 | 6.2 | 3.45 | 12.5 | 6.95
Ac-KWLKKWLKWWKK-NH2 [8d] | 145 | 80.59 | 6.2 | 3.45 | 12.5 | 6.95 | 39.25 | 3.1 | 1.72 | -16759 mdeg cm2/(dmol × res) | -24786 mdeg cm2/(dmol × res) | -10222 mdeg cm2/(dmol × res) | -6537 | -14564 | 39.00 | 58.75 | 6.2 | 3.45 | 6.2 | 3.45
Ac-RWIRRWIRWWRR-NH2 [7c] | 40 | 20.33 | 6.2 | 3.15 | 25 | 12.70 | 40.63 | 6.2 | 3.15 | -10279 mdeg cm2/(dmol × res) | -19297 mdeg cm2/(dmol × res) | -3192 mdeg cm2/(dmol × res) | -7087 | -16105 | 68.94 | 83.45 | 6.2 | 3.15 | 12.5 | 6.35

From publication PMC9841524, “Structure-Based Rational Design of Small α-Helical Peptides with Broad-Spectrum Activity against Multidrug-Resistant Pathogens” (Journal of Medicinal Chemistry, 2022)
